# Literature values, collected in patent US20090156457A1, “METHODS AND MEANS FOR SCREENING FOR RHOMBOID ACTIVITY” (MEDICAL RESEARCH COUNCIL, priority 2004, published 2009).
# Test system: Rhomboid
row,SMILES,Rhomboid activity
1,"O=c1oc(Cl)c(Cl)c2ccccc12 [3,4-DCI]",inhibit Rhomboid activity
2,Cc1ccc(S(=O)(=O)N[C@@H](Cc2ccccc2)C(=O)CCl)cc1 [TPCK],inhibit Rhomboid activity
